In ChEMBL document CHEMBL5390280, “Design, Synthesis, and Biological Evaluation of an Orally Bioavailable, Potent, and Selective ROCK2 Inhibitor for Psoriasis Treatment” (J Med Chem, 2023):
In brackets after ≈: the same amount, converted by molar mass. Activity calls are given as the source filed them. No cut-off for these calls is given here.

Experiments:
Mus musculus [1] = assay: Anti-inflammatory activity in Balb/c mouse model of IMQ-induced skin inflammation assessed as decrease in IL-17A mRNA level in dorsal skin at 20 to 40 mg/kg, po administered daily for 7 days by RT-qPCR analysis; type: functional, organism-based; details: dose 20-40 mg/kg, time 7.0 day
[2] = Toxicity in Balb/c mouse model of IMQ-induced skin inflammation assessed as body weight loss at 80 mg/kg, po administered daily for 7 days; type: organism-based; details: in vivo, 168 h, time 7 day
[3] = AUC (0 to t) in Balb/c mouse at 40 mg/kg, po measured for 0.08 to 24 hrs by LC-MS/MS analysis; type: ADME, organism-based; design: time 0.08-24 hrs, dose 40 mg/kg, route po; details: in vivo
Mus musculus [4] = assay: Anti-inflammatory activity in Balb/c mouse model of IMQ-induced skin inflammation assessed as decrease in IL-17F mRNA level in dorsal skin at 20 to 40 mg/kg, po administered daily for 7 days by RT-qPCR analysis; type: functional, organism-based; details: dose 20-40 mg/kg, time 7.0 day
Mus musculus [5] = assay: Anti-inflammatory activity in Balb/c mouse model of IMQ-induced skin inflammation assessed as decrease in serum IL-17F level at 80 mg/kg, po administered daily for 7 days by IHC analysis; type: functional, organism-based; details: time 7.0 day
[6] = Tmax in Balb/c mouse at 40 mg/kg, po measured for 0.08 to 24 hrs by LC-MS/MS analysis; type: ADME, organism-based; details: in vivo, time 0.08-24 hrs
Mus musculus [7] = assay: Anti-inflammatory activity in Balb/c mouse model of IMQ-induced skin inflammation assessed as decrease in IL-17A+ T cells in dorsal skin administered orally daily for 7 days by high power field microscopy; type: functional, organism-based; details: T-cell, dose 20-80 mg/kg, route po, time 7.0 day
[8] = Lipophilicity, log D of the compound at pH 7.4; type: physicochemical; details: buffer
[9] = Chemical stability of compound in PBS at pH 7.4 assessed as compound remaining measured after 10 days; type: physicochemical; details: time 10 day, read-out: Stability
HaCaT [10] = assay: Inhibition of KGF-induced hyperproliferation of human HaCaT cells by plate clone formation assay; type: functional, cell-based
Mus musculus [11] = assay: Anti-inflammatory activity in Balb/c mouse model of IMQ-induced skin inflammation assessed as reduction in skin scales at 20 to 80 mg/kg, po administered daily for 7 days; type: functional, organism-based; details: dose 20-80 mg/kg, time 7.0 day
[12] = Clearance in Balb/c mouse at 10 mg/kg, iv measured for 0.08 to 24 hrs by LC-MS/MS analysis; type: ADME, organism-based; details: in vivo, time 0.08-24 hrs
Mus musculus [13] = assay: Anti-inflammatory activity in Balb/c mouse model of IMQ-induced skin inflammation assessed as decrease in CD3+ T cells in dorsal skin at 20 to 80 mg/kg, po administered daily for 7 days by high power field microscopy; type: functional, organism-based; details: T-cell, dose 20-80 mg/kg, time 7.0 day
Mus musculus [14] = assay: In vivo inhibition of ROCK2 in Balb/c mouse model of IMQ-induced skin inflammation assessed as decrease in pSTAT3+ cells in dorsal skin at 20 to 80 mg/kg, po administered daily for 7 days by high power field microscopy; type: functional, organism-based; details: dose 20-80 mg/kg, time 7.0 day
Mus musculus [15] = assay: Anti-inflammatory activity in Balb/c mouse model of IMQ-induced skin inflammation assessed as reduction in skin roughness at 20 to 80 mg/kg, po administered daily for 7 days; type: functional, organism-based; details: dose 20-80 mg/kg, time 7.0 day
[16] = Solubility in aqueous buffer at pH 7.4; type: physicochemical
[17] = AUC (0 to infinity) in Balb/c mouse at 10 mg/kg, iv measured for 0.08 to 24 hrs by LC-MS/MS analysis; type: ADME, organism-based; design: dose 10 mg/kg, time upper 24 hrs, time lower 0.08 hrs, route iv; details: in vivo
Mus musculus [18] = assay: Anti-inflammatory activity in Balb/c mouse model of IMQ-induced skin inflammation assessed as decrease in IL-17A mRNA level in dorsal skin at 80 mg/kg, po administered daily for 7 days by RT-qPCR analysis; type: functional, organism-based; details: time 7.0 day
[19] = Volume of distribution at steady state in Balb/c mouse at 10 mg/kg, iv measured for 0.08 to 24 hrs by LC-MS/MS analysis; type: ADME, organism-based; details: in vivo, time 0.08-24 hrs, read-out: Vdss
Mus musculus [20] = assay: Anti-inflammatory activity in Balb/c mouse model of IMQ-induced skin inflammation assessed as reduction in skin swelling at 20 to 80 mg/kg, po administered daily for 7 days; type: functional, organism-based; details: dose 20-80 mg/kg, time 7.0 day
Mus musculus [21] = assay: Anti-inflammatory activity in Balb/c mouse model of IMQ-induced skin inflammation assessed as decrease in KGF mRNA level in dorsal skin at 40 to 80 mg/kg, po administered daily for 7 days by RT-qPCR analysis; type: functional, organism-based; details: dose 40-80 mg/kg, time 7.0 day
Mus musculus [22] = assay: Anti-inflammatory activity in Balb/c mouse model of IMQ-induced skin inflammation assessed as decrease in IL-23 mRNA level in dorsal skin at 80 mg/kg, po administered daily for 7 days by RT-qPCR analysis; type: functional, organism-based; details: time 7.0 day
Mus musculus [23] = assay: In vivo inhibition of ROCK2 in Balb/c mouse model of IMQ-induced skin inflammation assessed as decrease in pSTAT5+ cells in dorsal skin at 20 to 80 mg/kg, po administered daily for 7 days by high power field microscopy; type: functional, organism-based; details: dose 20-80 mg/kg, time 7.0 day
HaCaT [24] = assay: Anti-psoriasis effect in KGF-stimulated human HaCaT cells assessed as decrease in N-cadherin level at 2 to 5 uM incubated for 24 hrs by Western blot analysis; type: functional, cell-based; details: dose 2-5 µM
Mus musculus [25] = assay: Anti-inflammatory activity in Balb/c mouse model of IMQ-induced skin inflammation assessed as decrease in IL-23 mRNA level in dorsal skin at 20 to 40 mg/kg, po administered daily for 7 days by RT-qPCR analysis; type: functional, organism-based; details: dose 20-40 mg/kg, time 7.0 day
[26] = Selectivity ratio of IC50 for ROCK1 (unknown origin) to IC50 for ROCK2 (unknown origin)
[27] = Half life in Balb/c mouse at 40 mg/kg, po measured for 0.08 to 24 hrs by LC-MS/MS analysis; type: ADME, organism-based; details: in vivo, time 0.08-24 hrs
HaCaT [28] = assay: Anti-psoriasis effect in KGF-stimulated human HaCaT cells assessed as decrease in fibronectin level at 2 to 5 uM incubated for 24 hrs by Western blot analysis; type: functional, cell-based; details: dose 2-5 µM
Mus musculus [29] = assay: Anti-inflammatory activity in Balb/c mouse model of IMQ-induced skin inflammation assessed as reduction in epidermal thickness of dorsal skin at 40 to 80 mg/kg, po administered daily for 7 days by H and E staining based analysis; type: functional, organism-based; details: dose 40-80 mg/kg, time 7.0 day
[30] = biological target: Rho-associated protein kinase 1 (Homo sapiens, UniProt Q13464); assay: Inhibition of ROCK1 (unknown origin) by HTRF assay
Chain of Rho-associated protein kinase 1 (Q13464 whole entry): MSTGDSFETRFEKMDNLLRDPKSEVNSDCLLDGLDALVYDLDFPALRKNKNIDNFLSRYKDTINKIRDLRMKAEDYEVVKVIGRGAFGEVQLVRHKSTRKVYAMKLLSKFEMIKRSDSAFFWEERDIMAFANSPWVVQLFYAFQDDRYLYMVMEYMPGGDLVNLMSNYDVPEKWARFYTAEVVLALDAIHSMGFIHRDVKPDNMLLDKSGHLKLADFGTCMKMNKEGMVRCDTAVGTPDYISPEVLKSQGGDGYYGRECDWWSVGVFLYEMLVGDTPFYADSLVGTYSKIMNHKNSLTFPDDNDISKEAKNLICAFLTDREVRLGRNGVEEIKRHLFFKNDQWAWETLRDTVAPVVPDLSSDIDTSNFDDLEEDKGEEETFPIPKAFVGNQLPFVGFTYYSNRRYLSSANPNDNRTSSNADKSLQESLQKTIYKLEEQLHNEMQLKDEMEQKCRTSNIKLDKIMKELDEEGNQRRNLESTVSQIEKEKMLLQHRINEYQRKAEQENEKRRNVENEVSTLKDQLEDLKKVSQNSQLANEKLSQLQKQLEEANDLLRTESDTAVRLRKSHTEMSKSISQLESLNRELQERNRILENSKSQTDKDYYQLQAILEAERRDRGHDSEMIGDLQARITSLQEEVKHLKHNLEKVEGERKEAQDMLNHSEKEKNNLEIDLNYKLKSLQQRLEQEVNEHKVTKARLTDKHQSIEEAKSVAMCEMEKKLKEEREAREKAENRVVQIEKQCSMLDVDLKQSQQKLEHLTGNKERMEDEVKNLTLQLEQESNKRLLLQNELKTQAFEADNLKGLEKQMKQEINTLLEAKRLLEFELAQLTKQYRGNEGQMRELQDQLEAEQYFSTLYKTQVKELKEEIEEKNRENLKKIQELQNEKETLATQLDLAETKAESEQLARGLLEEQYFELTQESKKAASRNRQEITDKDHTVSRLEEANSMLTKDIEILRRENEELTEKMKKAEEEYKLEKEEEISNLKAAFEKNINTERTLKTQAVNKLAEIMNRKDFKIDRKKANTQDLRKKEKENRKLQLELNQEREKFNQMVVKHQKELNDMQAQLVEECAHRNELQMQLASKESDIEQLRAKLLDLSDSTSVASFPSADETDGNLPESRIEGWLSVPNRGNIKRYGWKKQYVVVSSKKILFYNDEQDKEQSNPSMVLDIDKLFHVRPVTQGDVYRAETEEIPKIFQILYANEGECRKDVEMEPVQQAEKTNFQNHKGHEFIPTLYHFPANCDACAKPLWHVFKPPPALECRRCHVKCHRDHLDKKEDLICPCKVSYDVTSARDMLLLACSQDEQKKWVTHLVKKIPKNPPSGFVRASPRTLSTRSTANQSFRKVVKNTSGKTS

HaCaT [31] = assay: Anti-psoriasis effect in KGF-stimulated human HaCaT cells assessed as decrease in MMP-2 level at 2 to 5 uM incubated for 24 hrs by Western blot analysis; type: functional, cell-based; details: dose 2-5 µM
[32] = Half life in Balb/c mouse at 10 mg/kg, iv measured for 0.08 to 24 hrs by LC-MS/MS analysis; type: ADME, organism-based; details: in vivo, time 0.08-24 hrs
Mus musculus [33] = assay: Anti-inflammatory activity in Balb/c mouse model of IMQ-induced skin inflammation assessed as decrease in Ki67+ cells in dermis of dorsal skin at 80 mg/kg, po administered daily for 7 days by IHC analysis; type: functional, organism-based; details: time 7.0 day
[34] = biological target: Rho-associated protein kinase 2 (Homo sapiens, UniProt O75116); assay: Inhibition of ROCK2 (unknown origin) by HTRF assay
Chain of Rho-associated protein kinase 2 (O75116 whole entry): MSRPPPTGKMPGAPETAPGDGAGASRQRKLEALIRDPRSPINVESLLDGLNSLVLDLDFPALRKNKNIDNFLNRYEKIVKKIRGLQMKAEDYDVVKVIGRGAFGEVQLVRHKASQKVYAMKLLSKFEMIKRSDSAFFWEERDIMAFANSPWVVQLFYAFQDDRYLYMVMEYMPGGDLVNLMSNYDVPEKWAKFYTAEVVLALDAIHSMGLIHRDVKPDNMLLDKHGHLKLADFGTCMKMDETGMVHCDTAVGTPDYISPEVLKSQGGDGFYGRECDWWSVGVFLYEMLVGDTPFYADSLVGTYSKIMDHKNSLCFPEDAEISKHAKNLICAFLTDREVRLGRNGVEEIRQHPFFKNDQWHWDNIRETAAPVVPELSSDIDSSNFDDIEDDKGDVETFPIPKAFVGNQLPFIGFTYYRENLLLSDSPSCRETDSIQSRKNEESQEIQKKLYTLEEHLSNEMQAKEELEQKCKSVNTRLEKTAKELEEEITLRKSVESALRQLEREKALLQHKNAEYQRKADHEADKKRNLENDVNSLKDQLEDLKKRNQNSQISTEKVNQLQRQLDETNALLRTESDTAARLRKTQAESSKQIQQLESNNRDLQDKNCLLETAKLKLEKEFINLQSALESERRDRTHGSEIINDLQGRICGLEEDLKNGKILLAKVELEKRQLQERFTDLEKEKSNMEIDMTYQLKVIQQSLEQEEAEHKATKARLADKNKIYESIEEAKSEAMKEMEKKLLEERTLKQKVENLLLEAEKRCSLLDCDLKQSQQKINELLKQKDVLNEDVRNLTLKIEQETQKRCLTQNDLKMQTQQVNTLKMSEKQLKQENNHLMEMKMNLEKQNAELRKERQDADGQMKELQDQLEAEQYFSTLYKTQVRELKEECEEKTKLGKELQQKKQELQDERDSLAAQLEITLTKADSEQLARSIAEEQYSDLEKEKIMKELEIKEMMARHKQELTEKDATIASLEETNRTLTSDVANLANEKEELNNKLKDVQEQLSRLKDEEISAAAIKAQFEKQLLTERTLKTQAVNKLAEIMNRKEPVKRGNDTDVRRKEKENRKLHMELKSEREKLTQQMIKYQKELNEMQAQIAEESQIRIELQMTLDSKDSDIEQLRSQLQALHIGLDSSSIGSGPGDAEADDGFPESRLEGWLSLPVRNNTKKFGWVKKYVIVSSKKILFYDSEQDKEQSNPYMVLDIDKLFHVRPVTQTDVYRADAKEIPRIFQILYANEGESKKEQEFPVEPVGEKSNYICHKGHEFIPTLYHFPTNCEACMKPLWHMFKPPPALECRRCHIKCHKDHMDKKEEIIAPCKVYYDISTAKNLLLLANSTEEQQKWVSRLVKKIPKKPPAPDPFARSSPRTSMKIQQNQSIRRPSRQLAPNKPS

Cc1cc(=O)n(-c2cccc(CN[C@H]3CCC[C@H](Nc4ccc5[nH]ncc5c4)C3)c2)cc1F
Activity (Mus musculus [1]): Active
Activity [2]: Non-Toxic
AUC(0-t) [3]: 300 ng·h/mL
Activity (Mus musculus [4]): Active
Activity (Mus musculus [5]): inactive
Tmax [6]: 0.25 h
Activity (Mus musculus [7]): Dose-Dependent Effect
logD [8]: 0.84
remaining at 240 h [9]: 100%
inhibition (HaCaT [10]): Active
Activity (Mus musculus [11]): Active
clearance [12]: 158 mL/min/kg
Activity (Mus musculus [13]): Active
Activity (Mus musculus [14]): Active
Activity (Mus musculus [15]): Active
solubility [16]: 193 µg/mL (≈ 433 µM)
AUC(0-inf) [17]: 1060 ng·h/mL
Activity (Mus musculus [18]): Active
Vd [19]: 8.63 L/kg
Activity (Mus musculus [20]): Active
Activity (Mus musculus [21]): Active
Activity (Mus musculus [22]): Active
Activity (Mus musculus [23]): Active
Activity (HaCaT [24]): Active
Activity (Mus musculus [25]): Active
Ratio IC50 [26]: 19
half-life [27]: 1.26 h
Activity (HaCaT [28]): Active
Activity (Mus musculus [29]): Active
IC50 [30]: 71.2 nM
Activity (HaCaT [31]): Active
half-life [32]: 1.99 h
Activity (Mus musculus [33]): Active
IC50 [34]: 3.7 nM
